Assay results: US5962516A, “Immunosuppressive compounds and methods” (priority 1999, dated 1999)
Counter-ions that a name gives are not always drawn. Like-named read-outs stand apart in the source and are kept apart here.

Columns and labels:
[1] = system: IL-1β action on murine thymocytes; assay: Inhibition of IL-1 action (IL-1 assay): suppression of IL-1β + PHA stimulated murine thymocyte proliferation; assay type: cell-based, mouse (C3H/HeN)
Experimental: The ability of the above compounds to suppress the cell-proliferative effect of IL-1β in vitro (O'Gara, 1990) was examined as described in Example 11. Mouse thymocytes in culture were stimulated with IL-1β in the presence of phytohemagglutinin (PHA) and increasing concentrations of triptolide (control) and triptolide derivatives. The cells were cultured for 72 hours, and during the last 18 hours, incubated with tritiated thymidine. DNA synthesis was assessed by measuring incorporation of radiolabeled thymidine. The results expressed in terms of IC50 (concentration effective to cause 50% suppression of proliferation) are shown in Table 1.
C3H/HeN mouse thymocytes were prepared and the action of IL-1 together with PHA, which stimulate proliferation of thymocyte, was measured using standard techniques (O'Gara, 1990; Mishell, 1980). Three- to six-week old C3H/HeN male mice (Simonson Laboratory, Gilroy, Calif.) were sacrificed by CO2 inhalation. Thymi were removed, separated from adherent non-thymic tissue, homogenized in Hank's balanced salt solution (HBSS, Gibco) using a glass homogenizer, and centrifuged at 200×g for 10 minutes at 15° C. Following an additional wash in HBSS, the thymocytes were resuspended in RPMI 1640 medium containing 50 uM 2-mercaptoethanol, 2 mM glutamine, 1 mM sodium pyruvate, non-essential amino acids 100 U/ml penicillin, 100 μg/ml streptomycin, and 10% heat-inactivated fetal bovine serum.
Cells were cultured in round-bottom 96 well microtiter tissue culture plates, 6×10^5 cells per well, in a volume of 100 μl. Recombinant human IL-1β (R & D Systems #201-LB) together with Phytohemagglutinin P (PHA, Pharmacia) were added to the cells in volume of 25 μl per well to achieve a final concentration of 0.08 ng/ml and 10 μg/ml, respectively. Samples were dissolved in DMSO (10 mg/ml), then diluted in culture medium. Twenty five microliters of the test sample was added to each well to achieve the final compound concentrations for each experiment. Cells with PHA together with IL-1 served as controls. The total volume for each well was 150 μl.
Plates were incubated at 37° C. in a 5% CO2 incubator for 72 hours. Fifty microliters of culture medium containing 0.5 μCi (^3 H)-thymidine (Amersham, 49 Ci/mmol) was added to each well prior to the last 18 hours of incubation. Cells were then harvested and counted. The results were reported as counts per minute (cpm) per 6×10^5 cells.
The following formula was used to calculate the percent of suppression of IL-1 activity, and IC50 (concentration of sample yielding 50% suppression of proliferation) was used to indicate the suppressive activity of the sample.
% suppression of IL-1 activity=(1-sample cpm/(IL-1+PHA control

[2] = system: mixed lymphocyte reaction (spleen cells from female C57BL/6 mice, stimulated with Balb/C spleen cells); assay: Mixed lymphocyte reaction (MLR) assay; assay type: cell-based, mouse; details: 50% suppression of proliferation; for IC50: read-out: MLR Assay IC50
Experimental: Inhibition of cell proliferation by the subject compounds was assayed in the mixed lymphocyte reaction (MLR) (Bradley, 1980; Mishell, 1980). Spleen cells from female C57BL/6 mice, the "responder" cells, were prepared and co-cultured alone or in the presence of varying concentrations of the test compounds, with irradiated spleen cells prepared from female Balb/C mice, the "stimulator" cells. Prior irradiation of the stimulator cells rendered them unable to proliferate. A sample of the responder cells was also irradiated for use as a control. The non-irradiated responder cells proliferate in the presence of the allogenic stimulator cells. After a 78-hour incubation, tritiated thymidine was added to the mixed cell cultures, and incorporation of the labeled nucleotide into DNA was measured as an index of cell proliferation.
In this study, the responder cells (R) were spleen cells from female C57BL16 mice, and the stimulator cells (S) were spleen cells from female Balb/C mice 6 to 8 weeks of age (Jackson, Bar Harbor, Me.). The spleens were aseptically removed from the mice and placed into 10 ml of cold HBSS in a sterile petri dish. The spleen was cut in half and gently pressed between the frosted ends of 2 sterile microslides. The cell suspension was then filtered through sterile nylon mesh (Nytex, Tetco #HD-3-85) into a 15 ml conical polypropylene centrifuge tube and centrifuged at 200×g for 10 minutes in a Beckman GPR tabletop centrifuge (GH-3.7 Rotor). Following an additional wash in HBSS, the spleen cells were resuspended in RPMI 1640 medium (Gibco) containing 50 uM 2-mercaptoethanol, 2 mM glutamine, 100 U/ml penicillin, 100 μg/ml streptomycin and 10% heat-inactivated fetal bovine serum.
The stimulator cells (S) and part of the responder cells (R) were diluted at 10×10^6 cells/ml and irradiated at 20 cGy with a Cesium Irradiator (Department of Radiation Oncology, Stanford University, California) to inhibit proliferation. The irradiated cells were washed once to remove any toxic free radicals and their products resulting from irradiation. The responder cells (R), irradiated stimulator cells (Sx) and irradiated responder cell (Rx) were all diluted to 4×10^6 cells/ml.
In the assay, 4×10^5 cells of R were cocultured with 4×10^5 cells of Sx in 200 μl of medium in round bottom 96 well tissue culture plates. Fifty micro-liters of test samples at various concentrations were added to the cells. The wells receiving no test samples would get the maximum proliferation. Several controls were used in the assay. The irradiated responder cells (Rx) were also added to the responder cells with and without the test samples. Rx or Sx alone were checked to make sure no proliferation occurred after irradiation. The spontaneous proliferation of R was also measured.
The culture plates were incubated at 37° C. in a 5% CO2 incubator for four days. The cells were labelled with 1 μCi of (^3 H)-thymidine (Amersham, 49 Ci/mmol) in 20 μl of medium for the last 18 hours. Cells were then harvested and counted. The results were reported as counts per minute (cpm) per well. Percent of suppression and IC50 (concentration of sample producing 50% suppression of proliferation) were used to indicate the suppressive activity of the sample. Sample cpm was calculated as (R+Sx+sample)cpm-(R+Rx+sample)cpm; control cpm was calculated as (R+Sx)cpm-(R+Rx)cpm. Percent suppression of MLR activity was calculated as (1-sample cpm/control cpm)×100. IC50 was determined from percent suppression to indicate the suppressive activity of the sample.

[3] = 50% suppression of proliferation; 72 h culture
[4] = read-out: IL-1 Assay IC50; 50% suppression of proliferation; 72 h culture

CC(C)[C@]12O[C@H]1[C@@H]1O[C@]13[C@]1(O[C@H]1C[C@H]1C4=C(CC[C@@]13C)C(=O)OC4)[C@@H]2O [Triptolide, triptolide, reference compound]
inhibition of IL-1β action in words [1]: potent inhibitor of IL-1β action | IC50 ([1]; 50% suppression of proliferation; 72 h culture; read-out: IL-1 Assay IC50): ~5 nM | IC50 ([2]; Mus musculus, Lymphocyte): 0.0009 µg/mL

CC(C)C12OC1C1OC13C1(C)CCC4=C(COC4=O)C1CC1OC13C2OC(=O)CCC(=O)O (stereo not drawn) [YM-262, Triptolide Succinate]
IL-1 Assay IC50 [1, 3]: 0.181 µg/mL | IC50 [1, 4]: 393 nM | MLR Assay IC50 [2]: 0.086 µg/mL | IC50 [2]: 187 nM

CC(C)C12OC1C1OC13C1(C)CCC4=C(COC4=O)C1CC1OC13C2OC(=O)CCC(=O)O (stereo not drawn) [YM-273, Triptolide Succinate Tris Salt]
IL-1 Assay IC50 [1, 3]: 0.462 µg/mL | IC50 [1, 4]: 800 nM | MLR Assay IC50 [2]: 0.18 µg/mL | IC50 [2]: 310 nM

CC(C)C12OC1C1OC13C1(C)CCC4=C(COC4=O)C1CC1OC13C2OC(=O)CCC(=O)O (stereo not drawn) [YM-274, Triptolide Succinate Sodium Salt]
IL-1 Assay IC50 ([1]; 50% suppression of proliferation; 72 h culture; Succinate Sodium Salt): 0.181 µg/mL | IC50 ([1]; read-out: IL-1 Assay IC50; 50% suppression of proliferation; 72 h culture; Succinate Sodium Salt): 376 nM | MLR Assay IC50 ([2]; Succinate Sodium Salt): 0.09 µg/mL | IC50 ([2]; Succinate Sodium Salt): 187 nM
